SMILES strings stand for the structures. pIC50: −log10 of the molar value.

interaction between p53 and MDM2 proteins, sequence (Q00987 whole entry): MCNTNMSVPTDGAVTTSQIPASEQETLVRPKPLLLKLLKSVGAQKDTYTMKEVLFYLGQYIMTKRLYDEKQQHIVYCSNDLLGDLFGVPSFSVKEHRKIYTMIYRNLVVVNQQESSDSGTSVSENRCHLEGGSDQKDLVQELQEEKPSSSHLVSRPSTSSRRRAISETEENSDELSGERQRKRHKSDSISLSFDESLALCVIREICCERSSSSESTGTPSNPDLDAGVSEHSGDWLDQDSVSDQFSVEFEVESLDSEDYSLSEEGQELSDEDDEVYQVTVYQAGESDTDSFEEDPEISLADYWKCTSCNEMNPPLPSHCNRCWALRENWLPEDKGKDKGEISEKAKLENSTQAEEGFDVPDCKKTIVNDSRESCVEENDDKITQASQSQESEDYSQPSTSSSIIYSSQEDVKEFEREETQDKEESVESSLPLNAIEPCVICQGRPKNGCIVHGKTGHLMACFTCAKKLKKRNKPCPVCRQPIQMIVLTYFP

The assay concerns the target interaction between p53 and MDM2 proteins (Homo sapiens, UniProt Q00987). In words: HTRF assay of inhibition of the p53-MDM2 interaction (GST-MDM2 / biotinylated p53 peptide). As to conditions: recombinant GST-tagged MDM2 and biotinylated p53 peptide, bsa:0.02%. In kind it is binding. Background: In TR-FRET formats the signal depends on donor and acceptor labels being close together.
Turning to `COc1cc(C(N)=O)ccc1NC(=O)[C@@H]1N[C@@H](CC(C)(C)C)[C@@]2(C(=O)Nc3c2ccc(Cl)c3F)[C@H]1c1cccc(Cl)c1F` (racemic) [Example 178, rac-(2′S,3′R,4′S,5′R)-6-chloro-4′-(3-chloro-2-fluoro-phenyl)-2′-(2,2-dimethyl-propyl)-7-fluoro-2-oxo-1,2-dihydro-spiro[indole-3,3′-pyrrolidine]-5′-carboxylic acid (4-carbamoyl-2-methoxy-phenyl)-amide], the pIC50 is 7.82.

With `CC(C)(C)C[C@@H]1N[C@@H](C(=O)Nc2ccc(S(C)(=O)=O)cc2F)[C@H](c2cccc(Cl)c2F)[C@]12C(=O)Nc1cc(Cl)ccc12` (racemic) [Example 37, rac-(2′S,3′R,4′S,5′R)-6-chloro-4′-(3-chloro-2-fluoro-phenyl)-2′-(2,2-dimethyl-propyl)-2-oxo-1,2-dihydro-spiro[indole-3,3′-pyrrolidine]-5′-carboxylic acid (2-fluoro-4-methanesulfonyl-phenyl)-amide], the pIC50 was less than 5.00.

Take `COc1cc(NC(=O)[C@@H]2N[C@@H](CC(C)(C)C)[C@@]3(C(=O)Nc4cc(Cl)ccc43)[C@H]2c2cccc(Cl)c2F)ccc1C(N)=O` (racemic) [Example 22, rac-(2′S,3′R,4′S,5′R)-6-chloro-4′-(3-chloro-2-fluoro-phenyl)-2′-(2,2-dimethyl-propyl)-2-oxo-1,2-dihydro-spiro[indole-3,3′-pyrrolidine]-5′-carboxylic acid (4-carbamoyl-3-methoxy-phenyl)-amide]: the pIC50 was 7.96.

For `CCOc1cc(C(=O)OC)ccc1NC(=O)[C@@H]1N[C@@H](CC(C)(C)C)[C@@]2(C(=O)Nc3cc(Cl)ccc32)[C@H]1c1cccc(Cl)c1F` (racemic) [Example 129, rac-4-{[(2′S,3′R,4′S,5′R)-6-chloro-4′-(3-chloro-2-fluoro-phenyl)-2′-(2,2-dimethyl-propyl)-2-oxo-1,2-dihydro-spiro[indole-3,3′-pyrrolidine]-5′-carbonyl]-amino}-3-ethoxy-benzoic acid methyl ester], the pIC50 is 8.00.

As to `CC(C)(C)C[C@@H]1N[C@@H](C(=O)Nc2ccc(C(=O)CO)cc2)[C@H](c2cccc(Cl)c2F)[C@]12C(=O)Nc1cc(Cl)ccc12` (racemic) [Example 42, rac-(2′S,3′R,4′S,5′R)-6-chloro-4′-(3-chloro-2-fluoro-phenyl)-2′-(2,2-dimethyl-propyl)-2-oxo-1,2-dihydro-spiro[indole-3,3′-pyrrolidine]-5′-carboxylic acid [4-(2-hydroxy-acetyl)-phenyl]-amide], the negative logarithm of the IC50 (pIC50) is 7.85.

With `COc1cc(C(N)=O)ccc1NC(=O)[C@@H]1N[C@@H](CC(C)(C)C)[C@@]2(C(=O)Nc3cc(Cl)cc(F)c32)[C@H]1c1cccc(Cl)c1F` (racemic) [Example 76, rac-(2′S,3′R,4′S,5′R)-6-chloro-4′-(3-chloro-2-fluoro-phenyl)-2′-(2,2-dimethyl-propyl)-4-fluoro-2-oxo-1,2-dihydro-spiro[indole-3,3′-pyrrolidine]-5′-carboxylic acid (4-carbamoyl-2-methoxy-phenyl)-amide], the negative-log IC50 (pIC50) is 7.96.

On to `CC(C)(C)C[C@@H]1N[C@@H](C(=O)Nc2ccc(C#N)cc2F)[C@H](c2cccc(Cl)c2F)[C@]12C(=O)Nc1cc(Cl)ccc12` (racemic) [Example 52, rac-(2′S,3′R,4′S,5′R)-6-chloro-4′-(3-chloro-2-fluoro-phenyl)-2′-(2,2-dimethyl-propyl)-2-oxo-1,2-dihydro-spiro[indole-3,3′-pyrrolidine]-5′-carboxylic acid (4-cyano-2-fluoro-phenyl)-amide], for which the pIC50 was 7.92.

Consider `CC(C)(C)C[C@@H]1N[C@@H](C(=O)Nc2ccc(C(=O)O)cc2)[C@H](c2cccc(Cl)c2F)[C@]12C(=O)Nc1cc(Cl)ccc12` (racemic) [Example 6, rac-4-{[(2′S,3′R,4′S,5′R)-6-chloro-4′-(3-chloro-2-fluoro-phenyl)-2′-(2,2-dimethyl-propyl)-2-oxo-1,2-dihydro-spiro[indole-3,3′-pyrrolidine]-5′-carbonyl]amino}-benzoic acid], for which the negative-log IC50 (pIC50) was 7.96.

With `COc1cc(N(C)C)ccc1NC(=O)[C@@H]1N[C@@H](CC(C)(C)C)[C@@]2(C(=O)Nc3cc(Cl)ccc32)[C@H]1c1cccc(Cl)c1F` (racemic) [Example 164, rac-(2′S,3′R,4′S,5′R)-6-chloro-4′-(3-chloro-2-fluoro-phenyl)-2′-(2,2-dimethyl-propyl)-2-oxo-1,2-dihydro-spiro[indole-3,3′-pyrrolidine]-5′-carboxylic acid (4-dimethylamino-2-methoxy-phenyl)-amide], the negative-log IC50 (pIC50) was 7.74.

`CC(C)(C)C[C@@H]1N[C@@H](C(=O)Nc2ccc(I)cc2F)[C@H](c2cccc(Cl)c2F)[C@]12C(=O)Nc1cc(Cl)ccc12` (racemic) [Example 51, rac-(2′S,3′R,4′S,5′R)-6-chloro-4′-(3-chloro-2-fluoro-phenyl)-2′-(2,2-dimethyl-propyl)-2-oxo-1,2-dihydro-spiro[indole-3,3′-pyrrolidine]-5′-carboxylic acid (2-fluoro-4-iodo-phenyl)-amide]: the negative-log IC50 (pIC50) is 7.70.

Consider `CC(C)(C)C[C@@H]1N[C@@H](C(=O)Nc2ccc(Cl)cc2)[C@H](c2cccc(Cl)c2F)[C@]12C(=O)Nc1cc(Cl)ccc12` (racemic) [Example 21, rac-(2′S,3′R,4′S,5′R)-6-chloro-4′-(3-chloro-2-fluoro-phenyl)-2′-(2,2-dimethyl-propyl)-2-oxo-1,2-dihydro-spiro[indole-3,3′-pyrrolidine]-5′-carboxylic acid (4-chloro-phenyl)-amide], for which the negative logarithm of the IC50 (pIC50) was 7.72.

Regarding `CC(C)(C)C[C@@H]1N[C@@H](C(=O)Nc2nc(C(N)=O)cs2)[C@H](c2cccc(Cl)c2F)[C@]12C(=O)Nc1cc(Cl)ccc12` (racemic) [Example 198, rac-(2′S,3′R,4′S,5′R)-6-chloro-4′-(3-chloro-2-fluoro-phenyl)-2′-(2,2-dimethyl-propyl)-2-oxo-1,2-dihydro-spiro[indole-3,3′-pyrrolidine]-5′-carboxylic acid (4-carbamoyl-thiazol-2-yl)-amide], the pIC50 was 7.92.

Regarding `CCCCOc1cc(C(=O)OC)ccc1NC(=O)[C@@H]1N[C@@H](CC(C)(C)C)[C@@]2(C(=O)Nc3cc(Cl)ccc32)[C@H]1c1cccc(Cl)c1F` (racemic) [Example 150, rac-3-butoxy-4-{[(2′S,3′R,4′S,5′R)-6-chloro-4′-(3-chloro-2-fluoro-phenyl)-2′-(2,2-dimethyl-propyl)-2-oxo-1,2-dihydro-spiro[indole-3,3′-pyrrolidine]-5′-carbonyl]-amino}-benzoic acid methyl ester], the negative-log IC50 (pIC50) is 7.82.

As for `COc1cc(OCCS(C)(=O)=O)ccc1NC(=O)[C@@H]1N[C@@H](CC(C)(C)C)[C@@]2(C(=O)Nc3cc(Cl)ccc32)[C@H]1c1cccc(Cl)c1F` [Example 170, chiral (2′S,3′R,4′S,5′R)-6-chloro-4′-(3-chloro-2-fluoro-phenyl)-2′-(2,2-dimethyl-propyl)-2-oxo-1,2-dihydro-spiro[indole-3,3′-pyrrolidine]-5′-carboxylic acid [4-(2-methanesulfonyl-ethoxy)-2-methoxy-phenyl]-amide], the negative logarithm of the IC50 (pIC50) is 8.15.

In the case of `CC(C)(C)C[C@@H]1N[C@@H](C(=O)Nc2ccc(CCC(=O)O)cc2)[C@H](c2cccc(Cl)c2F)[C@]12C(=O)Nc1cc(Cl)ccc12` [Example 222, chiral 3-(4-{[(2′S,3′R,4′S,5′R)-6-chloro-4′-(3-chloro-2-fluoro-phenyl)-2′-(2,2-dimethyl-propyl)-2-oxo-1,2-dihydro-spiro[indole-3,3′-pyrrolidine]-5′-carbonyl]-amino}-phenyl)-propionic acid], the pIC50 was 8.30.

For the compound `CC(C)(C)C[C@@H]1N[C@@H](C(=O)Nc2ccc(C(N)=O)cc2)[C@H](c2cc(F)cc(Cl)c2)[C@]12C(=O)Nc1cc(Cl)ccc12` (racemic) [Example 89], the negative logarithm of the IC50 (pIC50) was 7.89.

Consider `CC(=O)OCC(C)(C)C[C@@H]1N[C@@H](C(=O)Nc2ccc(C#N)cc2)[C@H](c2cccc(Cl)c2F)[C@]12C(=O)Nc1cc(Cl)ccc12` (racemic) [Example 104, acetic acid rac-3-[(2′S,3′R,4′S,5′R)-6-chloro-4′-(3-chloro-2-fluoro-phenyl)-5′-(4-cyano-phenylcarbamoyl)-2-oxo-1,2-dihydro-spiro[indole-3,3′-pyrrolidin]-2′-yl]-2,2-dimethyl-propyl ester], for which the negative-log IC50 (pIC50) is 7.92.

Turning to `COc1cc(C(=O)O)c(F)cc1NC(=O)[C@@H]1N[C@@H](CC(C)(C)C)[C@@]2(C(=O)Nc3cc(Cl)ccc32)[C@H]1c1cccc(Cl)c1F` (racemic) [Example 215, rac-4-{[(2′S,3′R,4′S,5′R)-6-chloro-4′-(3-chloro-2-fluoro-phenyl)-2′-(2,2-dimethyl-propyl)-2-oxo-1,2-dihydro-spiro[indole-3,3′-pyrrolidine]-5′-carbonyl]-amino}-2-fluoro-5-methoxy-benzoic acid], the pIC50 is 7.96.

On to `COc1cc(CC(N)=O)ccc1NC(=O)[C@@H]1N[C@@H](CC(C)(C)C)[C@@]2(C(=O)Nc3cc(Cl)ccc32)[C@H]1c1cccc(Cl)c1F` [Example 161, chiral (2′S,3′R,4′S,5′R)-6-chloro-4′-(3-chloro-2-fluoro-phenyl)-2′-(2,2-dimethyl-propyl)-2-oxo-1,2-dihydro-spiro[indole-3,3′-pyrrolidine]-5′-carboxylic acid (4-carbamoylmethyl-2-methoxy-phenyl)-amide], for which the negative logarithm of the IC50 (pIC50) is 8.40.

Turning to `CC(C)(C)C[C@@H]1N[C@@H](C(=O)Nc2ccccc2)[C@H](c2cccc(Cl)c2F)[C@]12C(=O)Nc1cc(Cl)ccc12` [Example 147, chiral (2′S,3′R,4′S,5′R)-6-chloro-4′-(3-chloro-2-fluoro-phenyl)-2′-(2,2-dimethyl-propyl)-2-oxo-1,2-dihydro-spiro[indole-3,3′-pyrrolidine]-5′-carboxylic acid phenylamide], the pIC50 is 7.96.

In the case of `COc1cc(OCCO)ccc1NC(=O)[C@@H]1N[C@@H](CC(C)(C)C)[C@@]2(C(=O)Nc3cc(Cl)ccc32)[C@H]1c1cccc(Cl)c1F` [Example 134, chiral (2′S,3′R,4′S,5′R)-6-chloro-4′-(3-chloro-2-fluoro-phenyl)-2′-(2,2-dimethyl-propyl)-2-oxo-1,2-dihydro-spiro[indole-3,3′-pyrrolidine]-5′-carboxylic acid [4-(2-hydroxy-ethoxy)-2-methoxy-phenyl]-amide], the pIC50 is 8.30.

By pIC50 is commonly meant −log10 of the IC50, conventionally taken in molar units.

The record behind these values is patent publication US8088815B2, “Spiroindolinone pyrrolidines” (Hoffman-La Roche Inc., priority 2009, dated 2012).
